# Measured values published in article PMC4686872 (European journal of medicinal chemistry, 2015).
# Like-named read-outs stand apart in the source and are kept apart here.
# Experiments:
# MRSA = test: Broth microdilution MIC against MRSA, summarised over the strains tested; assay type: cell-based, Staphylococcus aureus; details: for MIC: Staphylococcus aureus, MRSA, read-out: MIC against MRSA; for antimicrobial activity against MRSA (in words): strains as named in the sentence
# MRSA USA300 = test: Minimum bactericidal concentration
# VRSA (VRS2) = test: Broth microdilution MIC, VRSA VRS2; assay type: cell-based, Staphylococcus aureus; details: vancomycin-resistant S. aureus VRS2
# [1] = system: murine macrophage (J774) cell line; test: MTS cytotoxicity assay
# [2] = Kinetic solubility screen in PBS; assay type: physicochemical
# Caco-2 bilayer [3] = test: Caco-2 permeability assay
# Caco-2 bilayer [4] = system: Caco-2 bilayer
# in vitro = details: human, Caco-2
# [5] = 64 µM / up to a concentration of 64 µM
# [6] = 128 µM (data not presented), all toxic, exception = not toxic
smiles,measurement,setting,value
[C-]#[N+]c1ccccc1/C=C(\CC)c1ccccc1 [Compound 1],MIC,MRSA,8 to 64 µM
same,bacteriostatic or bactericidal,MRSA USA300,bacteriostatic
[C-]#[N+]c1ccccc1CP(=O)(OCC)OCC [Compound 4a],"Minimum inhibitory concentration (MIC), VRSA2 VRS 2",VRSA (VRS2),>128 µM
same,antimicrobial activity against MRSA (in words),MRSA,complete loss of activity
[C-]#[N+]c1ccccc1/C=C(\CC)c1ccc(OC)cc1 [Compound 11],toxicity to J774 cells,[1]; [5],toxic
[C-]#[N+]c1ccccc1/C=C(\CC)c1cccc(C(F)(F)F)c1 [Compound 12],toxicity to J774 cells,[1]; [5],toxic
[C-]#[N+]c1ccccc1/C=C/c1ccccc1 [Compound 13],MIC,MRSA,≥ 2 µM
same,reduction in the MIC against MRSA,MRSA; relative to compound 1 (removal of the ethyl group),two-to-eight fold
same,Solubility Analysis,[2],Low solubility
same,toxicity to J774 cells,[1]; [5],neither compound was toxic
same,Permeability Analysis,Caco-2 bilayer [3],Not permeable
[C-]#[N+]c1ccccc1/C=C/c1cccc(OC)c1 [Compound 15],toxicity to J774 cells,[1]; [6],exception
[C-]#[N+]c1ccccc1/C=C/c1cccc(F)c1 [Compound 19],toxicity to J774 cells,[1]; [5],toxic
[C-]#[N+]c1ccccc1/C=C/c1ccc(C)cc1 [Compound 23],MIC,MRSA,4 to 64 µM
same,antimicrobial activity against MRSA (in words),MRSA,active against all MRSA strains tested
[C-]#[N+]c1ccccc1/C=C/c1ccc(CCCC)cc1 [Compound 24],antimicrobial activity against MRSA (in words),MRSA,lacked activity against most MRSA strains tested
[C-]#[N+]c1ccccc1/C=C/c1ccc([N+](=O)[O-])cc1 [Compound 25],toxicity to J774 cells,"[1]; 32 µM, all not toxic, exception = toxic",exception
same,toxicity to J774 cells,[1]; [5],toxic
[C-]#[N+]c1ccccc1C=C1CCCCC1 [Compound 26],antimicrobial activity against MRSA (in words),MRSA,inactive against several MRSA isolates
[C-]#[N+]c1ccccc1/C=C/c1ccccn1 [Compound 27],antimicrobial activity against MRSA (in words),MRSA,reduced antimicrobial activities
[C-]#[N+]c1ccccc1/C=C/c1cccnc1 [Compound 30],antimicrobial activity against MRSA (in words),MRSA,reduced antimicrobial activities
same,toxicity to J774 cells,[1]; [6],exception
[C-]#[N+]c1ccccc1/C=C/c1ccncc1 [Compound 33],antimicrobial activity against MRSA (in words),MRSA,reduced antimicrobial activities
[C-]#[N+]c1ccc(/C=C/c2ccccc2)cc1 [Compound 37],toxicity to J774 cells,[1]; [6],exception
CC/C(=C\c1ccccc1)c1ccccc1 [Compound 42],antimicrobial activity against MRSA (in words),MRSA,complete loss in the anti-MRSA activity
N#Cc1ccccc1/C=C/c1ccccc1 [Compound 43],antimicrobial activity against MRSA (in words),MRSA,complete loss of antimicrobial activity
[C-]#[N+]c1ccccc1-c1ccccc1 [Compound 46],antimicrobial activity against MRSA (in words),MRSA,lacks activity against three strains of MRSA
[C-]#[N+]c1ccc(C)cc1-c1ccc(C(C)(C)C)cc1 [Compound 49],antimicrobial activity against MRSA (in words),MRSA,loss in antimicrobial activity
[C-]#[N+]c1ccc(C)cc1-c1ccc(C(F)(F)F)cc1 [Compound 50],antimicrobial activity against MRSA (in words),MRSA,loss in antimicrobial activity
[C-]#[N+]c1ccccc1CCc1ccccc1 [Compound 53],antimicrobial activity against MRSA (in words),MRSA,active against several strains
CNC(=C[N+](=O)[O-])NCCSCc1ccc(CN(C)C)o1 [Ranitidine],Permeability Analysis,Caco-2 bilayer [4],Low permeability
same,Papp A→B,in vitro,0.23 ×10⁻⁶ cm/s
"COC(=O)[C@H]1[C@H]2C[C@@H]3c4[nH]c5cc(OC)ccc5c4CCN3C[C@H]2C[C@@H](OC(=O)c2cc(OC)c(OC)c(OC)c2)[C@@H]1OC [Reserpine, reference compound]",Solubility Analysis,[2],Low solubility
